According to PMC2394492 (British Journal of Cancer, 2003):

Tests used:
[1] = Plasma pharmacokinetics of 5-FU and FBAL after PVI of 5-FU and oral S-1 in patients; format: in vivo, human
Experimental: Infusion was carried out with the use of a battery-operated pump (STC-508, Terumo Co., Ltd., Tokyo, Japan) for five consecutive days. […] After a washout period of 9 days, patients received S-1 in two divided doses daily for 28 consecutive days. S-1 was administered orally within 1 h after breakfast and supper, at about 0900 and 1900 hours The daily dose of S-1 in terms of tegafur was 80 mg day^−1 in patients with a body surface area (BSA) of <1.25 m^2, 100 mg day^−1 in those with a BSA of ⩾1.25 m^2 to <1.5 m^2, and 120 mg day^−1 in those with a BSA of ⩾1.5 m^2.
On days 2–4, one blood sample was obtained at 0900 hours before the start of the next 24-h cycle. During oral administration of S-1, blood samples were taken on day 1 before the first dose of the day and at 1, 2, 4, 6, and 10 h. On days 2–4 of S-1 treatment, blood samples were taken before administration in the morning and at 4 and 10 h. On day 5, blood samples were obtained at 0, 2, 4, and 10 h. Peripheral blood samples (6 ml per sampling time) were collected in heparinised tubes and centrifuged at 1000 g for 15 min at 4°C. The plasma was stored at −20°C until analysis. Urine was collected from 0 to 24 h after the start of drug administration on day 1 of each treatment and refrigerated during the collection period.

[2] = molecular target: T1, dihydropyrimidine dehydrogenase (DPD) (Homo sapiens, UniProt Q12882); test: Plasma uracil concentration as surrogate marker of DPD inhibition (pharmacodynamic analysis); format: in vivo; conditions: for AUC of uracil: 10 patients, surrogate marker of DPD inhibition
T1 construct: from tissue; host or cells: patients in vivo (DPD mainly in the liver); plasma sampled
T1 sequence (Q12882 4-1025): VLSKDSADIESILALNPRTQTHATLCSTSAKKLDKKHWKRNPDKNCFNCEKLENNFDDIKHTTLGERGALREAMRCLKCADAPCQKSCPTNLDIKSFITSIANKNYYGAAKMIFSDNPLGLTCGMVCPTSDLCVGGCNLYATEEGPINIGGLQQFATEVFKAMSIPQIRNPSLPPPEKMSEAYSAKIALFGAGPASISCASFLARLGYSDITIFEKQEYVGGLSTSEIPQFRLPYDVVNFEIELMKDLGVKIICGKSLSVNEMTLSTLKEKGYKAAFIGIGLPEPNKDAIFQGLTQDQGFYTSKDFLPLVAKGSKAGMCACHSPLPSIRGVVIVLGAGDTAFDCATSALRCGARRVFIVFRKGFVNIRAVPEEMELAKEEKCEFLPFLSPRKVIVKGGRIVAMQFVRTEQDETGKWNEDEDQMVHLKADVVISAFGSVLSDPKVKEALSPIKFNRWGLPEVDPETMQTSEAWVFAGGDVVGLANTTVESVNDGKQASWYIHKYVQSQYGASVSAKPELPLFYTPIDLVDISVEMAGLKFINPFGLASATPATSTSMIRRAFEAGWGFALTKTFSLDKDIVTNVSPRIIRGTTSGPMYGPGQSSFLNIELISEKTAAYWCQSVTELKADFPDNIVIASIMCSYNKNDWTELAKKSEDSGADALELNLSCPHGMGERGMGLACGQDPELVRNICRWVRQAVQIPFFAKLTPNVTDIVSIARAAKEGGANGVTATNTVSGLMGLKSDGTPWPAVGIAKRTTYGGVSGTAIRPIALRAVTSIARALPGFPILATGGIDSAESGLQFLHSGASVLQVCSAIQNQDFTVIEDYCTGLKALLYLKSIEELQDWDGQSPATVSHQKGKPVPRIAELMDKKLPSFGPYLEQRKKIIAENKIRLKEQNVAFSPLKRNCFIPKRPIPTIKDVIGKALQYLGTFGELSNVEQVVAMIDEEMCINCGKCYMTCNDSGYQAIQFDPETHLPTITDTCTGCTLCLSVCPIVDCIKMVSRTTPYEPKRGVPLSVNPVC
Experimental: All 10 patients received 5-FU by PVI at a rate of 250 mg m^−2 day^−1 via a peripheral vein. Infusion was carried out with the use of a battery-operated pump (STC-508, Terumo Co., Ltd., Tokyo, Japan) for five consecutive days. The assigned daily dose of 5-FU was diluted in 500 ml of normal saline for infusion.
On days 1 and 5 of 5-FU PVI, blood samples were taken at 0 (before administration), 2, 6, and 10 h after the start of the infusion (0900 hours in all patients). On days 2–4, one blood sample was obtained at 0900 hours before the start of the next 24-h cycle. […] On day 5, blood samples were obtained at 0, 2, […], and 10 h. Peripheral blood samples (6 ml per sampling time) were collected in heparinised tubes and centrifuged at 1000 g for 15 min at 4°C. The plasma was stored at −20°C until analysis. Urine was collected from 0 to 24 h after the start of drug administration on day 1 of each treatment and refrigerated during the collection period.
Analysis of 5-FU and uracil was carried out as described by [Matsushima et al (1997)], with minor modification. 5-Fluorouracil and uracil were extracted with ethyl acetate after washing with dichloromethane and were subjected to a reaction to induce their trimethylsilyl derivatives. 5-Fluorouracil and uracil were analysed by electron impact ionisation gas-chromatography/mass-spectrometry (GC–MS). For analysis of 5-FU by GC–MS, stable isotopes were used as internal standards. The measurable ranges of plasma or urine levels were 1–400 ng ml^−1 for 5-FU and 5–2000 ng ml^−1 for uracil. For analysis of FBAL, plasma was deproteinised with ethanol and washed with dichloromethane. F-β-alanine was treated with 2,4-dinitrofluorobenzene to derive its dinitrophenyl ester, and the reaction product was extracted with dichloromethane under acidic conditions. The reaction product was separated by high-pressure liquid chromatography (LC) with a reversed-phase column, and LC/tandem-mass spectrometry was performed with the use of negative ion-electron spray ionisation. DL-norvaline was used as an internal standard. […]

[3] = cited from earlier work
[4] = system: dihydropyrimidine dehydrogenase (DPD); conditions: in vitro; background statement, no reference given; cited from earlier work
[5] = patients given 5-FU by PVI, ref Lokich et al, 1989

With O=c1[nH]cc(F)c(=O)[nH]1 [5-FU, 5-fluorouracil] the “time to steady state of plasma 5-FU concentration after the start of PVI” value ([1]; PVI of 5-FU) was 2 h, the “AUC0–10 h of 5-FU” value ([1]; plasma, day 5 (abstract)) was 728 ± 113 ng·h/mL and the AUC of uracil ([2]; Day 1, 0 to 10 h) was 200 ± 60 ng·h/mL. The AUC of uracil ([2]; Day 5, 0 to 10 h) was 252 ± 60 ng·h/mL, the “AUC0–10 h of uracil” value ([2]; day 5 (abstract)) was 252 ± 60 ng·h/mL and the “dose-limiting toxicity (DLT)” value ([3]; 5-FU by PVI, ref Lokich et al, 1989) was “HFS”. For the same molecule, the “incidence of grade 3 leukopenia” value [3, 5] was 1%, the “incidence of hand–foot syndrome” value [3, 5] was “about 23%” and the incidence of stomatitis [3, 5] was “about 23%”.

For Oc1cc(O)c(Cl)cn1 [CDHP, 5-chloro-2,4-dihydroxypyridine], the “DPD-inhibitory activity relative to that of uracil” value [4] is listed as 180 fold.

In the case of CCCCCOC(=O)Nc1nc(=O)n([C@@H]2O[C@H](C)[C@@H](O)[C@H]2O)cc1F [capecitabine], the “incidence of grade 3 HFS” value ([3]; capecitabine, ref Van Cutsem et al, 2000, 2001, Hoff et al, 2001) is listed as 15–18%, the “incidence of HFS” value ([3]; capecitabine, ref Van Cutsem et al, 2000) is listed as 45% and the incidence of cardiotoxicity ([3]; randomised phase II trial, metastatic colorectal cancer, five out of 108, ref Van Cutsem et al, 2000) is listed as 5%. For the same molecule, the incidence of paresthesia ([3]; randomised phase II trial, metastatic colorectal cancer, ref Van Cutsem et al, 2000) was 12%.
